These results are taken from patent US8685967B2, “Substituted triazolopyridines and analogs thereof” (Merck Sharp & Dohme Corp., priority 2009, dated 2014).

A word on the Ki: it is a measure of affinity in units of concentration, obtained from inhibition or displacement.

T1 sequence (Q9Y233 1-779 isoform Q9Y233-1): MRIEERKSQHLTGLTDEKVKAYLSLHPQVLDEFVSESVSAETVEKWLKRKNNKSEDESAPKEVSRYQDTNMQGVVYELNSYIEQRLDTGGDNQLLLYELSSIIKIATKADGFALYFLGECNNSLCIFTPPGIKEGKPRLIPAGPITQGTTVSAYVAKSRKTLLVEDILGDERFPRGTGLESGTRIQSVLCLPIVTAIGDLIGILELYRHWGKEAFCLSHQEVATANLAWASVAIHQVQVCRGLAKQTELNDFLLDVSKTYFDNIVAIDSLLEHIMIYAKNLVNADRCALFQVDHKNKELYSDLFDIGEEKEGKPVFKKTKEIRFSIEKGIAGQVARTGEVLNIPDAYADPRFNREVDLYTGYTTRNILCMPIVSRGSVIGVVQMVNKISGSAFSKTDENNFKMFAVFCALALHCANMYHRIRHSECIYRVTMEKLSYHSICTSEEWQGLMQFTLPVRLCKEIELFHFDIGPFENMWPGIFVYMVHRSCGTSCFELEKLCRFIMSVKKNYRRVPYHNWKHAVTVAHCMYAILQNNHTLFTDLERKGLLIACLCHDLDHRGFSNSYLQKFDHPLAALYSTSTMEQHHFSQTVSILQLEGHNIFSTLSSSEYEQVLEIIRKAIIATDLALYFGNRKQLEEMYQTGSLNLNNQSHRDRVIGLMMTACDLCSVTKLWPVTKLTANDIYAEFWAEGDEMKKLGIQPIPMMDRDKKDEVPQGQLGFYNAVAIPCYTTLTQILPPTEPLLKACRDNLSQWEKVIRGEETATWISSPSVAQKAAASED

This assay has as its target T1, Human recombinant PDE10A1 (Homo sapiens, UniProt Q9Y233).
T1 construct: purchased BPS Bioscience, Inc
The assay is described as follows: In Vitro PDE10 Assay (scintillation proximity assay, [3H]cAMP). The class given is biochemical. As to conditions: PDE10A1 0.02 nM, 10 nM [3H]cAMP, 30 minutes at room temperature; Ki by Cheng and Prusoff. Here is the method:
PDE10A1 activity was measured in white opaque 384-well Opti-Plates (Perkin Elmer Life Sciences) using a scintillation proximity assay (GE Healthcare). Human recombinant PDE10A1 was purchased from BPS Bioscience, Inc. The reaction mixture contained PDE10A1 (0.02 nM), 10 nM [^3H]cAMP ([5′,8-^3H]Adenosine 3′,5′-cyclic phosphate, ammonium salt], Amersham) and various concentrations of compound in 50 mM Tris-HCl, pH 7.5, 8.3 mM MgCl2, […] and 0.2% bovine serum albumen in a total volume of 30 μl. The assay was initiated with the addition of substrate and was allowed to proceed for 30 minutes at room temperature before being stopped by the addition of 300 μg yttrium SPA PDE beads. The reaction mixtures were thoroughly mixed, and the beads were allowed to settle for 30 minutes. The plates were then counted in a TopCount scintillation counter. Under these conditions, less than 30% of the substrate was hydrolyzed in the absence of compound. Ki values were determined as described by Cheng and Prusoff (1973).
Background: In a scintillation proximity assay essentially only radioactivity close to the scintillant gives light.
For `CC(C)(C)c1nnc2c(C(=O)NCCc3nc4ccc(F)cc4[nH]3)cccn12` [Example 1AA], the Ki was under 0.05 µM. Under `O=C(NCCc1nc2ccccc2[nH]1)c1cccn2c(C(F)(F)F)nnc12` [Example 1A] stands under 0.05 µM. To `O=C(NCCc1nc2cc(Cl)ccc2[nH]1)c1cccn2c(C3CCC3)nnc12` [Example 1BBB] belongs under 0.05 µM; to `O=C(NCCc1nc2ccccc2[nH]1)c1cccn2c(C3CC3)nnc12` [Example 1BB], under 0.05 µM; to `O=C(NCCc1nc2cc(Cl)ccc2[nH]1)c1cccn2c(C(F)(F)F)nnc12` [Example 1B], under 0.05 µM. Regarding `CC(C)c1nnc2c(C(=O)NCCc3nc4cc(Cl)c(F)cc4[nH]3)cccn12` [Example 1DDD], the Ki was under 0.05 µM. To `CCc1nnc2c(C(=O)NCCc3nc4cc(Cl)ccc4[nH]3)cccn12` [Example 1DD] belongs under 0.05 µM.

For the compound `COc1ccc2nc(CCNC(=O)c3cccn4c(C)nnc34)[nH]c2c1` [Example 1EE], the Ki is under 0.01 µM.

In the case of `CC(C)(C)c1nnc2c(C(=O)NCCc3nc4ccccc4[nH]3)cc(Br)cn12` [Example 1E], the Ki was under 0.05 µM. `O=C(NCCc1nc2cc(Cl)ccc2[nH]1)c1cc(F)cn2c(C3CC3)nnc12` [Example 1FFF]: the Ki was under 0.05 µM. Under `Cc1nnc2c(C(=O)NCCc3nc4cc(Cl)ccc4[nH]3)cccn12` [Example 1FF] stands under 0.05 µM. `CC(C)c1nnc2c(C(=O)NCCc3nc4ccccc4[nH]3)cccn12` [Example 1GG]: the Ki was under 0.05 µM. To `O=C(NCCc1nc2cc(Cl)ccc2[nH]1)c1cc(Br)cn2c(C3CC3)nnc12` [Example 1HH] belongs under 0.05 µM. To `O=C(NCCc1nc2ccc(F)cc2[nH]1)c1cc(Br)cn2c(C3CC3)nnc12` [Example 1II] belongs under 0.05 µM; to `O=C(NCCc1nc2ccccc2[nH]1)c1cc(Br)cn2c(C3CC3)nnc12` [Example 1I], under 0.05 µM; to `O=C(NCCc1nc2cc(Cl)ccc2[nH]1)c1cccn2c(Br)nnc12` [Example 1LL], under 0.05 µM. Under `CC(C)(C)c1nnc2c(C(=O)NCCc3nc4ccccc4[nH]3)cc(F)cn12` [Example 1MM] stands under 0.05 µM. On to `CC(C)(C)c1nnc2c(C(=O)NCCc3nc4cc(Cl)ccc4s3)cc(Br)cn12` [Example 1M], for which the inhibition constant Ki is under 0.01 µM.

Consider `O=C(NCCc1nc2ccccc2[nH]1)c1cc(F)cn2c(C3CC3)nnc12` [Example 1NN], for which the Ki was under 0.05 µM. As for `CC(C)(C)c1nnc2c(C(=O)NCCc3nc4ccccc4s3)cc(Br)cn12` [Example 1N], the Ki is under 0.01 µM.

Turning to `O=C(NCCCc1nc2ccccc2[nH]1)c1cccn2c(C3CC3)nnc12` [Example 1O], the Ki is under 0.01 µM. For `CC(C)(C)c1nnc2c(C(=O)NCCCc3nc4ccccc4[nH]3)cccn12` [Example 1P], the inhibitory constant (Ki) is under 0.01 µM. `CC(C)(C)c1nnc2c(C(=O)NCCCc3nc4ccccc4[nH]3)cc(Br)cn12` [Example 1Q]: the Ki is under 0.01 µM. To `O=C(NCCc1nc2cc(Cl)ccc2[nH]1)c1cccn2c(C3CC3)nnc12` [Example 1R] belongs under 0.05 µM; to `COc1ccc2nc(CCNC(=O)c3cccn4c(C5CCC5)nnc34)[nH]c2c1` [Example 1SS], under 0.01 µM. `CC(C)c1nnc2c(C(=O)NCCc3nc4cc(Cl)ccc4[nH]3)cccn12` [Example 1S]: the Ki is under 0.05 µM. To `O=C(NCCc1nc2ccc(F)cc2[nH]1)c1cccn2c(C3CC3)nnc12` [Example 1T] belongs under 0.05 µM; to `COc1ccc2nc(CCNC(=O)c3cccn4c(C5CC5)nnc34)[nH]c2c1` [Example 1UU], under 0.05 µM.

For the compound `O=C(NCCc1nc2c(Cl)cc(C(F)(F)F)cc2[nH]1)c1cccn2c(C3CC3)nnc12` [Example 1VV], the inhibition constant (Ki) was under 0.01 µM.

In the case of `COc1ccc2nc(CCNC(=O)c3cccn4c(C(C)C)nnc34)[nH]c2c1` [Example 1XX], the Ki was under 0.05 µM. To `O=C(NCCc1nc2cc(Cl)c(F)cc2[nH]1)c1cccn2c(C3CC3)nnc12` [Example 1ZZ] belongs under 0.05 µM; to `CC(C)(C)c1nnc2c(C(=O)NCCc3nc4cc(Cl)ccc4[nH]3)cccn12` [Example 1Z], under 0.01 µM; to `Cc1nc2c(C(=O)NCCc3nc4cc(Cl)ccc4[nH]3)cccn2n1` [Example 2B], under 0.01 µM. Under `O=C(NCCc1nc2ccc(F)cc2[nH]1)c1cc(Br)cn2nc(C3CC3)nc12` [Example 2D] stands under 0.05 µM; under `O=C(NCCc1nc2ccccc2[nH]1)c1cc(Br)cn2nc(C3CC3)nc12` [Example 2F], under 0.01 µM; under `O=C(NCCc1nc2cc(Cl)ccc2[nH]1)c1cccn2nc(Br)nc12` [Example 2G], under 0.05 µM.

Regarding `CC(C)(C)c1nnc2c(C(=O)NCCc3nc4ccccc4[nH]3)cc(-c3ccncc3)cn12` [Example 4A], the Ki was under 0.05 µM. For the compound `CC(C)(C)c1nnc2c(C(=O)NCCCc3nc4ccccc4[nH]3)cc(-c3cccc(O)c3)cn12` [Example 4D], the inhibition constant (Ki) is under 0.01 µM. Regarding `CC(C)(C)c1nnc2c(C(=O)NCCCc3nc4ccccc4[nH]3)cc(-c3ccncc3)cn12` [Example 4E], the Ki is under 0.05 µM. Under `CC(C)(C)c1nnc2c(C(=O)NCCCc3nc4ccccc4[nH]3)cc(-c3cccnc3)cn12` [Example 4F] stands under 0.05 µM; under `CC(C)(C)c1nnc2c(C(=O)NCCCc3nc4ccccc4[nH]3)cc(C#CCO)cn12` [Example 5B], under 0.05 µM; under `Cn1c(CCNC(=O)c2cccn3c(C4CC4)nnc23)nc2cc(Cl)ccc21` [Example 7A], under 0.05 µM. Under `Cn1c(CCNC(=O)c2cccn3c(C4CC4)nnc23)nc2ccccc21` [Example 7D] stands under 0.05 µM. Under `Cn1c(CCNC(=O)c2cccn3c(C(C)(C)C)nnc23)nc2cc(Cl)ccc21` [Example 7E] stands under 0.05 µM; under `Cc1nnc2c(C(=O)NCCc3nc4cc(Cl)ccc4n3C)cccn12` [Example 7K], under 0.05 µM; under `CCn1c(CCNC(=O)c2cccn3c(C(C)C)nnc23)nc2ccccc21` [Example 7O], under 0.01 µM.

In the case of `Cn1c(CCCNc2cccc3ccn4c(C(C)(C)C)nnc4c23)nc2ccccc21` [Example 8B], the Ki is under 0.05 µM. Under `Cn1c(CCCNc2cccc3ccn4c(C(F)(F)F)nnc4c23)nc2ccccc21` [Example 8C] stands under 0.05 µM. Under `Cn1c(CCNc2cccc3ccn4c(C(F)(F)F)nnc4c23)nc2ccccc21` [Example 8] stands under 0.05 µM.
